The values below are quoted from earlier work in patent US8377956B2, “Use of (3R)-4-{[(1S)-2-methyl-1-(2-methylpropanoyloxy)propoxy]carbonylamino}-3-(4-chlorophenyl) butanoic acid for treating urinary incontinence” (XenoPort, Inc., priority 2010, dated 2013).

Each structure is given as a SMILES string.

In this data set the test system is patients with unstable bladder syndrome. The following applies: 5 mg four times per day.

Take `NCC(CC(=O)O)c1ccc(Cl)cc1` (racemic) [baclofen, (±)-4-Amino-3-(4-chlorophenyl)butanoic acid]: the “diurnal and nocturnal frequency of micturition” value was “significantly improve”; the severity of incontinence result is listed as “significantly improve”.
